In patent publication US8895549B2, “Aminoalcohol substituted 2,3-dihydroimidazo[1,2-c]quinazoline derivatives useful for treating hyper-proliferative disorders and diseases associated with angiogenesis” (Bayer Intellectual Property GmbH, priority 2010, dated 2014):
Where a name gives a salt, the structure may show the parent alone.

Experiments:
[1] = biological target: PI3Kβ (complex of human p110β and human p85α) (Homo sapiens (Human), UniProt P42338); assay: PI3Kβ kinase assay (HTRF-based PI3K inhibition assay); assay type: biochemical; conditions: for inhibition at 0.93 µM: 0.93 μM compound, read-out: PI3K beta average % Inhibition at 0.93 μM; for IC50: 10 μM ATP, 10 μM PIP2, 20 min at 22° C., read-out: average IC50 in the PI3K beta biochemical assay; for PI3K beta average IC50/PI3K alpha average IC50: ratio of beta IC50 to alpha IC50;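 on all read-outs here: Kinase-made PIP3 detected by HTRF, displacing biotinylated PIP3 tracer from a complex of Europium anti-GST antibody, GST-fused PH domain and Streptavidin-APC, read as Europium-to-APC energy transfer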
Excerpt: (§1) Determination of % Inhibition and IC50 Values of Compounds in PI3Kα Kinase Assay
PI3Kα inhibitory activity of compounds of the present invention was quantified employing the HTRF based PI3K inhibition assay as described below.
(§2) As reagents for the kinase reaction itself and the quantification of the reaction product, the PI3-Kinase HTRF Assay kit from Millipore (#33-017) was used. With this kit the phosphatidylinositol 3,4,5-trisphosphate (PIP3) generated in the kinase reaction is detected by displacement of a biotinylated ligand from an energy transfer complex consisting of a Europium-labeled anti-GST monoclonal antibody, a GST-tagged PH domain, biotinylated PIP3 and Streptavidin-Allophycocyanin (APC).
For the assay 50 nL of a 80-fold concentrated solution of the test compound in DMSO was pipetted into a black low volume 384-well microtiter plate (Greiner Bio-One, Frickenhausen, Germany), 3 μl of a solution of PI3Kβ and phosphatidylinositol-4,5-bisphosphate (PIP2, 13.8 μM=> final conc. in 4 μl reaction volume=10 μM) in 1× reaction buffer (exact composition not disclosed by the vendor) were added and the mixture was incubated for 15 min at 22° C. to allow pre-binding of the test compounds to the enzyme before the start of the kinase reaction. The amount of PI3Kβ was chosen to have the enzyme reaction in the linear range and depended on the activity of the individual lot, typical concentrations in assay were in the range of 120 ng/mL. Then the kinase reaction was started by the addition of 1 μL of a solution of adenosine triphosphate (ATP, 40 μM=> final conc. in the 4 μl assay volume is 10 μM) in reaction buffer and the resulting mixture was incubated for a reaction time of 20 min at 22° C.
The reaction was stopped by the addition of 1 μL of an stop solution (containing the biotinylated PIP3 used as a tracer). Then 1 μL detection mix (containing a Europium-labeled anti-GST monoclonal antibody, a GST-tagged PH domain, and Streptavidin-Allophycocyanin) was added and resulting mixture was incubated for 3 h at 22° C. to allow the formation of complexes between the detection reagents and either the PIP3 generated in the kinase reaction, or the biotinylated PIP3 added with the stop solution. Subsequently the amount of energy transfer complex consisting of a Europium-labeled anti-GST monoclonal antibody, a GST-tagged PH domain, biotinylated PIP3 and Streptavidin-Allophycocyanin (APC) was evaluated by measurement of the resonance energy transfer from the Europium-labeled anti-GST monoclonal antibody to the Streptavidin-Allophycocyanin. Therefore, the fluorescence emissions at 620 nm and 665 nm after excitation at 350 nm were measured using a TR-FRET reader, e.g., a Pherastar (BMG Labtechnologies, Offenburg, Germany) or a Viewlux (Perkin-Elmer). The ratio of the emissions at 665 nm and at 622 nm were taken as the measure for the amount of biotinylated PIP3 bound to the GST-tagged PH domain, which is negatively correlated with the amount of PIP3 generated.

[2] = biological target: PI3Kα (complex of human p110α and human p85α) (Homo sapiens (Human), UniProt P42336); assay: PI3Kα kinase assay (HTRF-based PI3K inhibition assay); assay type: biochemical; conditions: for inhibition at 0.93 µM: 0.93 μM compound, read-out: PI3K alpha average % Inhibition at 0.93 μM; for IC50: 10 μM ATP, 10 μM PIP2, 20 min at 22° C., read-out: average IC50 in the PI3K alpha biochemical assay;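 on all read-outs here: PIP3 product detected by HTRF, reading resonance energy transfer from Europium-labeled anti-GST antibody to Streptavidin-APC, as displacement of biotinylated PIP3 tracer from the GST-PH domain complex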
Sequence of PI3Kα (complex of human p110α and human p85α) (P42336 whole entry, the tested form may be a part): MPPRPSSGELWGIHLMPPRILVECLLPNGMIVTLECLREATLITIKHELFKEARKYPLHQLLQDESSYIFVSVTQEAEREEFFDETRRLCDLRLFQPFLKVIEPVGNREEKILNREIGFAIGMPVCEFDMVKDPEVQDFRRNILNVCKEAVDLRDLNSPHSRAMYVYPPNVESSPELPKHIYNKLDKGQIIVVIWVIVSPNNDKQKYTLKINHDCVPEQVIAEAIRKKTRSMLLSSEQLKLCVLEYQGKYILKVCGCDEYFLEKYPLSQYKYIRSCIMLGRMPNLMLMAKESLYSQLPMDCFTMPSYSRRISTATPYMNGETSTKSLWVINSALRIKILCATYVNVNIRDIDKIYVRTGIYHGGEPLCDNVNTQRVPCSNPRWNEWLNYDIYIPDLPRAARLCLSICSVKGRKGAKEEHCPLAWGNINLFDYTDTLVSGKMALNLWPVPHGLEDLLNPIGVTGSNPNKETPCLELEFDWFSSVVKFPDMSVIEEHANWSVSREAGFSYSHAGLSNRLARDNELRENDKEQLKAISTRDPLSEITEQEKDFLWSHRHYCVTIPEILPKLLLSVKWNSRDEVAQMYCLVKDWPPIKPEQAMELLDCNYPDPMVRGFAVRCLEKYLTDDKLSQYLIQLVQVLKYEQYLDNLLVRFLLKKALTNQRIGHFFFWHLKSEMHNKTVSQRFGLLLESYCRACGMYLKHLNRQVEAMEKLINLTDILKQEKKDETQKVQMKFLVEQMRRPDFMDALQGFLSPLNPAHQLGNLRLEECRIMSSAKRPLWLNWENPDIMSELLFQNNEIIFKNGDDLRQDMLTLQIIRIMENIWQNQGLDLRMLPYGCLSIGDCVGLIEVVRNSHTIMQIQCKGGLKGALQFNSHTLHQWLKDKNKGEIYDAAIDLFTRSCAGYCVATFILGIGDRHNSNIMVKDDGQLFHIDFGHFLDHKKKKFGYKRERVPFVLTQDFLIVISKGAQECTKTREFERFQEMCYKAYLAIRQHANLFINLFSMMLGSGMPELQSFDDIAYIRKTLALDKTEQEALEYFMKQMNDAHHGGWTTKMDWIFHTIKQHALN
Sequence of PI3Kα (complex of human p110α and human p85α) (P27986 whole entry partner, the tested form may be a part): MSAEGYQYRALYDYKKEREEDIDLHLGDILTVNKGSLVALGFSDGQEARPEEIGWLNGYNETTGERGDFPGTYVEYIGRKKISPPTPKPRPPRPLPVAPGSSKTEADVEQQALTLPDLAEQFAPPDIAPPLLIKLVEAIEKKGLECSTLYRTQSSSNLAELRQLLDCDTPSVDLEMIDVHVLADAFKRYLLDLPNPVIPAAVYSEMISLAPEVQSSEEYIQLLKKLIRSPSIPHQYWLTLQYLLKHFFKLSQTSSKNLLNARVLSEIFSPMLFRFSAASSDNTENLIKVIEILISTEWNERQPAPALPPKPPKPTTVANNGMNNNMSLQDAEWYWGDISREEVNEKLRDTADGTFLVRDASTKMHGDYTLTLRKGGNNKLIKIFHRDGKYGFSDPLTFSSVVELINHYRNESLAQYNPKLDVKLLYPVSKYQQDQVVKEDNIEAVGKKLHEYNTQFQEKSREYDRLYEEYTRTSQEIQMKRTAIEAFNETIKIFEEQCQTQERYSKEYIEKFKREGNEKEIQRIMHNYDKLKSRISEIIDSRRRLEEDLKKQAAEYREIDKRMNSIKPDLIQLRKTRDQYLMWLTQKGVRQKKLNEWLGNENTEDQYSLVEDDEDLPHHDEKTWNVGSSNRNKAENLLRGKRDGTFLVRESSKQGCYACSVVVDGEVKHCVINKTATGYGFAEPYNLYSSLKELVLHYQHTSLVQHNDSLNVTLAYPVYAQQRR
Excerpt: as §1
PI3Kα inhibitory activity of compounds of the present invention was quantified employing the HTRF-based PI3K inhibition assay as described below.
as §2
For the assay 50 nL of a 80-fold concentrated solution of the test compound in DMSO was pipetted into a black low volume 384-well microtiter plate (Greiner Bio-One, Frickenhausen, Germany), 3 μL of a solution of PI3Kα and phosphatidylinositol-4,5-bisphosphate (PIP2, 13.8 μM=> final conc. in 4 μl reaction volume=10 μM) in 1× reaction buffer (exact composition not disclosed by the vendor) were added and the mixture was incubated for 15 min at 22° C. to allow pre-binding of the test compounds to the enzyme before the start of the kinase reaction. The amount of PI3Kα was chosen to have the enzyme reaction in the linear range and depended on the activity of the individual lot, typical concentrations in assay were in the range of 90 ng/mL. Then the kinase reaction was started by the addition of 1 μL of a solution of adenosine triphosphate (ATP, 40 μM=> final conc. in the 4 μL assay volume is 10 μM) in reaction buffer and the resulting mixture was incubated for a reaction time of 20 min at 22° C.
The reaction was stopped by the addition of 1 μL of an stop solution (containing the biotinylated PIP3 used as a tracer), then 1 μL detection mix (containing a Europium-labeled anti-GST monoclonal antibody, a GST-tagged PH domain, and Streptavidin-Allophycocyanin) was added and resulting mixture was incubated 3 h at 22° C. to allow the formation of complexes between the detection reagents and either the PIP3 generated in the kinase reaction, or the biotinylated PIP3 added with the stop solution. Subsequently, the amount of energy transfer complex consisting of a Europium-labeled anti-GST monoclonal antibody, a GST-tagged PH domain, biotinylated PIP3 and Streptavidin-Allophycocyanin (APC) was evaluated by measurement of the resonance energy transfer from the Europium-labeled anti-GST monoclonal antibody to the Streptavidin-Allophycocyanin. Therefore, the fluorescence emissions at 620 nm and 665 nm after excitation at 350 nm were measured using a TR-FRET reader, e.g., a Pherastar (BMG Labtechnologies, Offenburg, Germany) or a Viewlux (Perkin-Elmer). The ratio of the emissions at 665 nm and at 622 nm was taken as the measure for the amount of biotinylated PIP3 bound to the GST-tagged PH domain, which is negatively correlated with the amount of PIP3 generated.

Sequence of PI3Kβ (complex of human p110β and human p85α) (P42338 whole entry, the tested form may be a part): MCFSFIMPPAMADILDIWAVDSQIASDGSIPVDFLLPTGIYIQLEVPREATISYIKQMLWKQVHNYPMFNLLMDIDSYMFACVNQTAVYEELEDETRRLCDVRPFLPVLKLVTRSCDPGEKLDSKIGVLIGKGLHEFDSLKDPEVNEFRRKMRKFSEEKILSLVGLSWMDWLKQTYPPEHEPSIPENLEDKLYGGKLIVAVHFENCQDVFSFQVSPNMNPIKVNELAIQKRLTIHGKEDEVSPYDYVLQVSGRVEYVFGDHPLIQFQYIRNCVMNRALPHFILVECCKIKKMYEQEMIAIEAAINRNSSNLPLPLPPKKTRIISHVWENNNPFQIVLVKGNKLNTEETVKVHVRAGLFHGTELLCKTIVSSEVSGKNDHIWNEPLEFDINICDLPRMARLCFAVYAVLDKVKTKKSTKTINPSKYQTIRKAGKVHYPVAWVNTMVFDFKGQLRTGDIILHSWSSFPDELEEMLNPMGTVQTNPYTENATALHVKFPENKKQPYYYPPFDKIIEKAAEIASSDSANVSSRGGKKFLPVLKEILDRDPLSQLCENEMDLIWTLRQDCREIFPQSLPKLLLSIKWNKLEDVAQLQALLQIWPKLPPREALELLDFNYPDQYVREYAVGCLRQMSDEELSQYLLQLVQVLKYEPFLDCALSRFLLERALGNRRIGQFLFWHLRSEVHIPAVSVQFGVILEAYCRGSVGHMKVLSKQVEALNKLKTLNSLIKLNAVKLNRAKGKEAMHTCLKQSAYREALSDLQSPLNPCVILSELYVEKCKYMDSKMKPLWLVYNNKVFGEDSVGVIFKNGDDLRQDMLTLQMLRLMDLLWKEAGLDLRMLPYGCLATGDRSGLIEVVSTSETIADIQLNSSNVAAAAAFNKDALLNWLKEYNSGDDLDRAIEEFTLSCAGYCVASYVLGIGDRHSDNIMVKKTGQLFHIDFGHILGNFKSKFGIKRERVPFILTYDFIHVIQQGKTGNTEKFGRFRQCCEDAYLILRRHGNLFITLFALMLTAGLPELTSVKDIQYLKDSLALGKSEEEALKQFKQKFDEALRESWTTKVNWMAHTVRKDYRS
Sequence of PI3Kβ (complex of human p110β and human p85α) (P27986 whole entry partner, the tested form may be a part): as the sequence (P27986 whole entry partner, the tested form may be a part) above

inhibition at 0.93 µM [1] | IC50 [1] | PI3K beta average IC50/PI3K alpha average IC50 [1] | inhibition at 0.93 µM [2] | IC50 [2] | Structure (SMILES)
91.2% | 10 to 50 nM | 2.78 | 103% | < 10 nM | COc1c(OC[C@H](O)CN2CCCCC2)ccc2c1N=C(NC(=O)c1cccnc1C)N1CCN=C21 [Example 19, N-(8-{[(2R)-2-Hydroxy-3-(piperidin-1-yl)propyl]oxy}-7-methoxy-2,3-dihydroimidazo[1,2-c]quinazolin-5-yl)-2-methylpyridine-3-carboxamide]
98.6% | 10 to 50 nM | 4.20 | 102% | < 10 nM | COc1c(OC[C@H](O)CN(C(C)C)C(C)C)ccc2c1N=C(NC(=O)c1cccnc1C)N1CCN=C21 [Example 20, N-(8-{[(2R)-3-(dipropan-2-ylamino)-2-hydroxypropyl]oxy}-7-methoxy-2,3-dihydroimidazo[1,2-c]quinazolin-5-yl)-2-methylpyridine-3-carboxamide]
– | 10 to 50 nM | 9.37 | – | < 10 nM | COc1c(OCC(O)CN2CCOCC2)ccc2c1N=C(NC(=O)c1ccc(N)nc1)N1CCN=C21 (stereo not shown) [Example 21, 6-amino-N-{8-[2-hydroxy-3-(morpholin-4-yl)propoxy]-7-methoxy-2,3-dihydroimidazo[1,2-c]quinazolin-5-yl}pyridine-3-carboxamide]
94.7% | 10 to 50 nM | 1.99 | 85.1% | 10 to 50 nM | COc1c(OC[C@H](O)CN2CCCC2)ccc2c1N=C(NC(=O)c1cncnc1)N1CCN=C21 [Example 24, N-(8-{[(2R)-2-hydroxy-3-(pyrrolidin-1-yl)propyl]oxy}-7-methoxy-2,3-dihydroimidazo[1,2-c]quinazolin-5-yl)pyrimidine-5-carboxamide]
102% | 10 to 50 nM | 5.52 | 97.9% | < 10 nM | COc1c(OC[C@H](O)CN2C[C@@H](C)O[C@@H](C)C2)ccc2c1N=C(NC(=O)c1cnc(N)nc1)N1CCN=C21 [Example 27, 2-amino-N-[8-({(2R)-3-[(2R,6S)-2,6-dimethylmorpholin-4-yl]-2-hydroxypropyl}oxy)-7-methoxy-2,3-dihydroimidazo[1,2-c]quinazolin-5-yl]pyrimidine-5-carboxamide]
102% | < 10 nM | – | 102% | < 10 nM | COc1c(OC[C@H](O)CN2CC3CCC(C2)O3)ccc2c1N=C(NC(=O)c1cnc(N)nc1)N1CCN=C21 [Example 28, 2-Amino-N-(8-{[(2R)-2-hydroxy-3-(8-oxa-3-azabicyclo[3.2.1]oct-3-yl)propyl]oxy}-7-methoxy-2,3-dihydroimidazo[1,2-c]quinazolin-5-yl)pyrimidine-5-carboxamide dihydrochloride]
106% | < 10 nM | 6.75 | 102% | < 10 nM | COc1c(OC[C@H](O)CN(C)C)ccc2c1N=C(NC(=O)c1cnc(N)nc1)N1CCN=C21 [Example 29, 2-Amino-N-(8-{[(2R)-3-(dimethylamino)-2-hydroxypropyl]oxy}-7-methoxy-2,3-dihydroimidazo[1,2-c]quinazolin-5-yl)pyrimidine-5-carboxamide]
108% | 10 to 50 nM | 8.83 | 110% | < 10 nM | COc1c(OC[C@H](O)CN2CCOCC2)ccc2c1N=C(NC(=O)c1cnc3[nH]cnc3c1)N1CCN=C21 [Example 30, N-(8-{[(2R)-2-Hydroxy-3-(morpholin-4-yl)propyl]oxy}-7-methoxy-2,3-dihydroimidazo[1,2-c]quinazolin-5-yl)-3H-imidazo[4,5-b]pyridine-6-carboxamide]
95.5% | 10 to 50 nM | 5.91 | 96.1% | < 10 nM | COc1c(OC[C@H](O)CN2CCOCC2)ccc2c1N=C(NC(=O)c1cncs1)N1CCN=C21 [Example 32, N-(8-{[(2R)-2-Hydroxy-3-(morpholin-4-yl)propyl]oxy}-7-methoxy-2,3-dihydroimidazo[1,2-c]quinazolin-5-yl)-1,3-thiazole-5-carboxamide]
97.1% | 10 to 50 nM | 7.21 | 94.2% | < 10 nM | COc1c(OC[C@H](O)CN2C[C@@H](C)O[C@@H](C)C2)ccc2c1N=C(NC(=O)c1cncs1)N1CCN=C21 [Example 34, N-[8-({(2R)-3-[(2R,6S)-2,6-dimethylmorpholin-4-yl]-2-hydroxypropyl}oxy)-7-methoxy-2,3-dihydroimidazo[1,2-c]quinazolin-5-yl]-1,3-thiazole-5-carboxamide]
102% | 10 to 50 nM | 6.30 | 109% | < 10 nM | COc1c(OC[C@H](O)CN2CCC2)ccc2c1N=C(NC(=O)c1cncs1)N1CCN=C21 [Example 35, N-(8-{[(2R)-3-(Azetidin-1-yl)-2-hydroxypropyl]oxy}-7-methoxy-2,3-dihydroimidazo[1,2-c]quinazolin-5-yl)-1,3-thiazole-5-carboxamide]
93.9% | 10 to 50 nM | 3.41 | 92.4% | < 10 nM | COc1c(OC[C@H](O)CN2CCCC2)ccc2c1N=C(NC(=O)c1cncs1)N1CCN=C21 [Example 36, N-(8-{[(2R)-2-Hydroxy-3-(pyrrolidin-1-yl)propyl]oxy}-7-methoxy-2,3-dihydroimidazo[1,2-c]quinazolin-5-yl)-1,3-thiazole-5-carboxamide]
93.7% | 10 to 50 nM | 2.98 | 103% | < 10 nM | COc1c(OC[C@H](O)CN2CCCCC2)ccc2c1N=C(NC(=O)c1cncs1)N1CCN=C21 [Example 37, N-(8-{[(2R)-2-Hydroxy-3-(piperidin-1-yl)propyl]oxy}-7-methoxy-2,3-dihydroimidazo[1,2-c]quinazolin-5-yl)-1,3-thiazole-5-carboxamide]
95.1% | < 10 nM | 5.64 | 92.8% | < 10 nM | COc1c(OC[C@H](O)CN2CCCC2)ccc2c1N=C(NC(=O)c1scnc1C)N1CCN=C21 [Example 38, N-(8-{[(2R)-2-Hydroxy-3-(pyrrolidin-1-yl)propyl]oxy}-7-methoxy-2,3-dihydroimidazo[1,2-c]quinazolin-5-yl)-4-methyl-1,3-thiazole-5-carboxamide]
99.3% | 10 to 50 nM | 5.83 | 95.7% | < 10 nM | COc1c(OC[C@H](O)CN(C(C)C)C(C)C)ccc2c1N=C(NC(=O)c1cncs1)N1CCN=C21 [Example 41, N-(8-{[(2R)-3-(dipropan-2-ylamino)-2-hydroxypropyl]oxy}-7-methoxy-2,3-dihydroimidazo[1,2-c]quinazolin-5-yl)-1,3-thiazole-5-carboxamide]

Structure (SMILES) | inhibition at 0.93 µM [1] | IC50 [1] | PI3K beta average IC50/PI3K alpha average IC50 [1] | inhibition at 0.93 µM [2] | IC50 [2]
COc1c(OC[C@H](O)CN2CCOCC2)ccc2c1N=C(NC(=O)c1ccc(N)nc1C)N1CCN=C21 [Example 23, 6-Amino-N-(8-{[(2R)-2-hydroxy-3-(morpholin-4-yl)propyl]oxy}-7-methoxy-2,3-dihydroimidazo[1,2-c]quinazolin-5-yl)-2-methylpyridine-3-carboxamide] | 119% | 10 to 50 nM | 7.30 | 105% | < 10 nM
COc1c(OCC(O)CN2CCOCC2)ccc2c1N=C(NC(=O)c1cnc(N)nc1)N1CCN=C21 (stereo not shown) [Example 25, 2-Amino-N-{8-[2-hydroxy-3-(morpholin-4-yl)propoxy]-7-methoxy-2,3-dihydroimidazo[1,2-c]quinazolin-5-yl}pyrimidine-5-carboxamide] | 93.3% | < 10 nM | 8.30 | 92.7% | < 10 nM
COc1c(OC[C@H](O)CN2CCOCC2)ccc2c1N=C(NC(=O)c1sc(N)nc1C)N1CCN=C21 [Example 39, 2-Amino-N-(8-{[(2R)-2-hydroxy-3-(morpholin-4-yl)propyl]oxy}-7-methoxy-2,3-dihydroimidazo[1,2-c]quinazolin-5-yl)-4-methyl-1,3-thiazole-5-carboxamide] | 122% | < 10 nM | 5.32 | 110% | < 10 nM
COc1c(OC[C@H](O)CN2CCCC2)ccc2c1N=C(NC(=O)c1cnco1)N1CCN=C21 [Example 40, N-(8-{[(2R)-2-Hydroxy-3-(pyrrolidin-1-yl)propyl]oxy}-7-methoxy-2,3-dihydroimidazo[1,2-c]quinazolin-5-yl)-1,3-oxazole-5-carboxamide] | 72.7% | > 50 nM | – | 88% | > 50 nM
